Laboratory results as given in a melting point compilation (Tetko et al.; mined from patent text by program, amines drawn as free bases though some values may be those of a salt).

Compound `CCOC(=O)C1C(=O)c2cc(OC)ccc2N=C1c1ccccc1` (stereo not given) has a melting point of 225 to 227 °C. `Cc1ccc(C)c(C(=O)NCCC23CC4CC(CC(C4)C2)C3)c1` gave a melting point of 153 °C. Work on `O=S1(=O)NCN(C2CCCCCC2)c2ccc(Cl)cc21` yielded a melting point of 216 to 218 °C. `O=[N+]([O-])c1ccc(C#CCCN2CCN(c3ccccn3)CC2)nc1` gave a melting point of 126 °C. In the case of `CC(=O)Nc1ccc(C#Cc2cnn3c(C(F)(F)F)cc(-c4ccc(C(F)(F)F)cc4)nc23)cn1`, the melting point is reported as 266 °C. `CCc1ccc(CC(C)(C)NCC(O)c2cc(OCc3ccccc3)cc3c2OCC(=O)N3)cc1` (stereo not given) showed a melting point of 210 to 214 °C. With `CC(C)C(=O)CNC(=O)c1ccc(F)cc1` the melting point was 107 to 108 °C. `CC(C)(C)OC(=O)NCCNC(=O)c1csc(Cl)n1` showed a melting point of 127 to 129 °C. With `CNc1nc(-c2cccc(-c3cnc4c(C)cccc4c3)c2)c2cc(OC)c(OC)cc2n1` the melting point was 188 to 190 °C. `COc1ccc(OC)c(C=O)c1C` gave a melting point of 61 to 61.5 °C. `COc1ccc2c(c1)C(=O)N(CCCN(C)CCN1C(=O)c3ccccc3C(C)(C)C1=O)C(=O)C2(C)C` gave a melting point of 158 °C. `Cc1noc(NS(=O)(=O)c2ccccc2-c2ccc(-c3cccnc3)cc2)c1C` gave a melting point of 96 to 106 °C. `COCOc1ccc2cc(Br)ccc2c1` gave a melting point of 46.8 to 49.2 °C. With `CCn1c(=O)c2c(nc(/C=C/c3ccc(OC)c(C)c3OC)n2C)n(CC)c1=O` the melting point was 196 to 197 °C. Work on `c1ccc2c(c1)OP(N(C1CCCCC1)C1CCCCC1)c1ccccc1-2` (stereo not given) yielded a melting point of 162 °C. For `Cc1cc(C2=NOC(c3cc(Cl)cc(Cl)c3)(C(F)(F)F)C2)ccc1C(=O)NCO` (stereo not given), the melting point was 69 to 73.5 °C. Compound `NC(=O)c1cc2n(c1)CCc1ccccc1C2=O` has a melting point of 228 °C. Compound `C[C@@H](n1cnc2cc(-c3ccc(F)cc3)sc2c1=O)[C@](O)(Cn1cncn1)c1ccccc1F` has a melting point of 213 to 225 °C. Compound `COC(=O)C1=C(C)N(CCOC(=O)c2ccccc2)C(=O)NC1c1ccc2ccccc2c1` (stereo not given) has a melting point of 116 °C. `O=S(=O)(c1ccc(F)cc1)N1CCCC1c1ccsc1` (racemic) showed a melting point of 135 °C. With `CSc1c(C#N)nn(-c2c(Cl)cc(C(F)(F)F)cc2Br)c1N` the melting point was 178 to 180 °C. `CCOC(=O)c1nc2n(c(=O)c1OCc1ccccc1)CCCC2` gave a melting point of 151 °C. For `CC(=O)c1cccc2nc(SCCCN3CCCN(CC(=O)Nc4c(C(C)C)cccc4C(C)C)CC3)oc12`, the melting point was 86 to 88 °C. `CC12Cc3cnn(-c4ccc(F)cc4)c3C=C1CCC1C2=CCCC1c1ccccn1` (stereo not given) showed a melting point of 154 to 156 °C. Compound `Cc1nc2cnc3cc(Cl)ccc3c2s1` has a melting point of 181 to 183 °C. With `Nc1ncnc2c1c(-c1ccc(Oc3ccc(OCCO)cc3)cc1)cn2CCO` the melting point was 166 °C. `c1ccc2c3c([nH]c2c1)C(c1ccc2c(c1)CCO2)NCC3` (stereo not given) showed a melting point of 98 to 99 °C. Work on `NCCC1CCc2ccc3c(c21)NC(=O)CO3` (stereo not given) yielded a melting point of 128 to 134 °C. For `CC(C)n1nc(-c2c(-c3ccccc3)nc(N)nc2N2CCNCC2)ccc1=O`, the melting point was 254 to 256 °C. Compound `Cc1ccccc1C(=O)Nn1c(=O)c(=O)[nH]c2ccc3ccc([N+](=O)[O-])cc3c21` has a melting point of over 230 °C. In the case of `COc1ccc2cc(CC(C(C)=O)C(=O)OC(C)(C)C)ccc2c1` (stereo not given), the melting point is reported as 63.6 °C. With `COC(=O)c1ccc(-c2nnc(-c3ccc(C(F)(F)F)cc3)o2)cc1` the melting point was 216 to 217 °C. `COc1cc(C(=O)O)c(-c2c(C(=O)O)cc(OC)c3c2OCO3)c(OC)c1OC` showed a melting point of 258 to 259 °C. Work on `Brc1ccc2c(c1)C(c1ccncc1)=Cc1ccccc1O2` yielded a melting point of 195 to 197 °C. Work on `Cn1cnc(N2CCc3ccccc3CC2)c(C#N)c1=O` yielded a melting point of 197 to 203 °C. Compound `CN(CCO)c1nc(N)nc(-c2cc(Cl)ccc2Cl)n1` has a melting point of 153 to 155 °C. In the case of `CCn1c(C)c(C2(N(c3ccccc3)c3ccc(NC(C)=O)cc3)OC(=O)c3ccccc32)c2ccccc21` (stereo not given), the melting point is reported as 93 to 116 °C. In the case of `CCC(C(=O)OCC[Si](C)(C)C)c1ccccc1CCC(=O)c1cccc(C=Cc2ccc3ccc(Cl)cc3n2)c1` (stereo not given), the melting point is reported as 109 to 111 °C. For `COC(=O)C1=CC(C(=O)c2cc(C)ccc2O)=CN2CCc3c([nH]c4ccccc34)C12C(=O)OC` (stereo not given), the melting point was 197 °C. For `COc1ccc(C(=O)NCCN2CCC(Oc3ccc(Cl)c(Cl)c3)CC2)cc1`, the melting point was 110 to 112 °C. With `COc1ccc(S(=O)(=O)C2(CCCCCCCCCC#Cc3ccc(Cl)cc3)SC(=O)NC2=O)cc1` (stereo not given) the melting point was 114 to 121 °C. `NNc1nc(-c2ccccc2)c2cc(Cl)ccc2n1` showed a melting point of 172 to 173 °C. For `N#Cc1ccc(N2C(=O)[C@@H]3[C@H](O)CCN3C2=O)c2c1OCCO2`, the melting point was 196 to 197 °C. With `CCCCCSC1=C(SCCCCC)SC(=C2SC3=C(CN(S(=O)(=O)c4ccc(C)cc4)C3)S2)S1` the melting point was 136 to 137 °C. With `Cc1cc(-c2ccc(Cl)c(Cl)c2)nc(-n2cnc(-c3cccc(S(C)(=O)=O)c3)c2)n1` the melting point was 213 °C. Work on `COC(=O)CCc1ccc(CNC(=O)[C@@H]2Cc3ccccc3N2S(=O)(=O)c2ccc(C(C)(C)C)cc2)cc1` yielded a melting point of 56 °C. Work on `O=C1CCC(c2ccccc2)(C2CCNC2)CC1` (stereo not given) yielded a melting point of 75 to 79 °C. `O=c1[nH]c(=Cc2ccc(OCc3ccncc3)cn2)c(=O)[nH]c1=Cc1ccccc1` gave a melting point of 254 to 255 °C. `CC1(C)C(=O)Nc2cc3[nH]c(N)nc3cc21` showed a melting point of 300 to 305 °C. `Cc1cc(C)cc(C(=O)c2c(-c3ccc(OCCCN(C)C)cc3)oc3ccccc23)c1` showed a melting point of 103 to 106 °C. `OC(CCc1ccc(Cl)s1)Cn1ccnc1` (stereo not given) showed a melting point of 82 to 84.5 °C. In the case of `CC(=Cc1cccc(O)c1)[N+](=O)[O-]`, the melting point is reported as 96 to 98 °C. `CCCCNc1ccc(-c2cc3ccccc3o2)cc1` gave a melting point of 113 to 115 °C. Compound `N#CC1CN1C(=O)CN1C(=O)c2ccccc2C1=O` (stereo not given) has a melting point of 126 to 128 °C. For `CON=Cc1nc2c(N)nc3cc(-c4cccc(CS(N)(=O)=O)c4)ccc3c2s1`, the melting point was 254 to 256 °C. Work on `COC(=O)Cc1cccc2c(=O)cc(C3=CCCCC3)oc12` yielded a melting point of 137 to 138 °C. With `CS(=O)(=O)Nc1ccc(C(O)(C(F)(F)F)C(F)(F)F)cc1` the melting point was 137 to 139 °C. With `C[C@H](NC(=O)OC(C)(C)C)C(=O)N1CCC[C@H]1C(=O)N1CCC[C@H]1C(=O)OCc1ccccc1` the melting point was 143 to 145 °C. `O=C(O)CCCCCNC(=O)S[C@@H]1CC(=O)N(Cc2ccc(Oc3ccc(F)cc3)nc2)C1` showed a melting point of 129 to 130 °C. Work on `CN(C)C(=O)N(C)c1nc2cc(C(C)(C)C)ccc2s1` yielded a melting point of 107 to 108 °C. `O=C1c2ccccc2C(=O)c2c1cccc2N1CCN(CCO)CC1` gave a melting point of 140 °C. `O=S(=O)(Nc1ncnc(Cl)c1-c1ccc(Cl)cc1)c1ccc(C(F)(F)F)cc1` gave a melting point of 275 °C. With `COc1ccc(CNC(=O)c2cc(C)sc2N)cc1OC` the melting point was 175 °C. Compound `CC(=O)OCC1OC(n2c(=S)[nH]c3cc(Cl)c(Cl)cc32)C(OC(C)=O)C1OC(C)=O` (stereo not given) has a melting point of 241 °C. Compound `COc1ccc(C2SCc3c(sc(N)c3C(=O)c3cccs3)S2)cc1` (stereo not given) has a melting point of 138 to 140 °C. For `Cc1cccc(NC(=O)NCC(=O)N(CC(=O)N2CCCC2)c2ccccc2)c1`, the melting point was 206 °C. Compound `CC(N(C(=O)c1ccc(C(F)(F)F)cc1)[C@H](C)C(=O)O)[C@](O)(Cn1cncn1)c1ccc(F)cc1F` (mixture of isomers) has a melting point of 219 to 221 °C. In the case of `Cc1oc(-c2ccc(Cl)cc2)cc1C(=O)NCc1ccc2cc(O)ccc2c1`, the melting point is reported as 202 to 204 °C. Compound `CC(C)N(CCC(CCN(C(C)C)C(C)C)(C(N)=O)c1ccccc1C(F)(F)F)C(C)C` has a melting point of 131 to 132 °C. `O=C(c1ccc([N+](=O)[O-])cc1)c1cc2c(c(Cl)c1Cl)OC(C(=O)O)C2` (stereo not given) showed a melting point of 243 to 245 °C. For `Cc1oc(-c2ccccc2)nc1CCC(=O)c1ccc(CC2SC(=O)NC2=O)cc1` (stereo not given), the melting point was 145 to 146 °C. In the case of `CC(=O)c1c(O)cccc1OCC(O)COc1c(C)cccc1C` (stereo not given), the melting point is reported as 88 to 90 °C. For `CCOP(=O)(/C=C/c1ccc(C(=O)OC)cc1)OCC`, the melting point was 60 to 65 °C. `N#Cc1ccc(N2CC(C(=O)N3CCN(CC(=O)OCc4ccccc4)CC3)OC2=O)cc1` (stereo not given) gave a melting point of 131 to 132 °C. `Cc1ccc(CSc2nc3cscc3n2C(=O)OCc2ccccc2)nc1` showed a melting point of 103 to 104 °C. `CC(C)(C)C1=NN(c2ccc(C(=O)O)cc2)C(c2cccc([N+](=O)[O-])c2)C1` (stereo not given) gave a melting point of 235 °C. For `Cc1ccc(-c2cn3c(n2)sc2cc(O)ccc23)cc1`, the melting point was 275 to 277 °C. For `COC(=O)/C(=C/CC[C@H](NC(=O)OCc1ccccc1)C(=O)N[C@H](C)C(=O)OC)NC(=O)OC(C)(C)C`, the melting point was 120 to 121 °C. With `O=C1C(c2ccc(Cl)cc2)Sc2ccc3ccccc3c2N1CCCCl` (stereo not given) the melting point was 110 to 112 °C. Compound `Oc1ccc(C2CCC(NCC(O)Cc3ccccc3)CC2)cc1` (racemic) has a melting point of 52 to 57 °C. In the case of `CS(=O)(=O)c1ccc(/C(=C\C2CCCCC2)C(=O)O)cc1`, the melting point is reported as 195 to 197 °C. `CN1C[C@@H]2C[C@@]1(C(=O)c1ccc(-c3[nH]nc4c3C(=O)c3c(NC(=O)NN5CCOCC5)cccc3-4)s1)CN2` showed a melting point of 224 to 225 °C. Compound `CCCCCCCCOc1cnc(-c2ccc(CCCCCC(C)OC(C)=O)cc2)nc1` (single isomer, unassigned; (+)) has a melting point of 73 to 74 °C. With `CC(=O)N[C@H]1CCC(=O)N2CCC[C@@H](C(=O)OC(C)(C)C)N2C1=O` the melting point was 162 to 163 °C. In the case of `CN(C)c1ccc(-c2cc(F)c(F)cc2-c2ccc(S(C)(=O)=O)cc2)cc1Cl`, the melting point is reported as 129 to 130 °C. Compound `CCC(Br)C(=O)NOCc1ccccc1` (stereo not given) has a melting point of 99.3 to 102 °C. Work on `CCOC(=O)CCNC(=O)c1cn2nc(NCCCN3CCC(OC(c4ccccc4)c4ccccc4)CC3)ccc2n1` yielded a melting point of 83 to 86 °C. Compound `CCC(C(C)=CC(CNC(=O)c1c[nH]cn1)=NO)[N+](=O)[O-]` (stereo not given) has a melting point of 157 to 158 °C. Compound `COc1cc2c(c3c1OC1(CCCC1)C3)C(c1ccccc1)=NC(C)(C)C2` has a melting point of 130 to 131 °C. Compound `COc1ccc(CCCCCCCCO)cc1` has a melting point of 47 to 49 °C. For `Cc1cc(SC(C)C)c(NC(=O)CCCCSc2nc3cccc(C(F)(F)F)c3o2)c(SC(C)C)n1`, the melting point was 118 to 120 °C. Compound `CCOC(=O)c1nc2n(n1)-c1ccc(Cl)cc1C(c1ccccc1)=NC2` has a melting point of 137 to 138 °C. `COc1ccccc1S(=O)(=O)OC(Br)C(=O)c1ccccc1` (stereo not given) showed a melting point of 90 to 91 °C. In the case of `N#CC(C(=O)c1nn(-c2ccccc2)c2c1CSc1ccccc1-2)C(=S)Nc1ccccc1` (stereo not given), the melting point is reported as 167 to 170 °C. With `CC(=O)Nc1nc(-c2ccc(O)cc2O)cs1` the melting point was 264 °C.
